Reference: US9738634B2, “Heterocyclic amide compound and herbicide” (SYNGENTA PARTICIPATIONS AG, priority 2013, dated 2017)

Columns and labels:
Type in all cases: in vivo
Settings in all cases: treatment dosage 320 g/ha
barnyard grass [1] = test: Test Example 2: weedkilling efficacy, growth period weed treatment in the submerged state; A: barnyard grass
Summary of the method: (§1)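 First, alluvial soil in pots is flooded to 4 cm and mixed seed is sown. Next, plants grow in a greenhouse at 25 to 30° C until the 1-2 leaf stage. Then diluted emulsion is applied onto the water surface at the given g/ha rate, and injury is assessed after 3 weeks.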

wild oat [2] = test: Test Example 3: weedkilling efficacy through soil treatment; G: wild oat
Summary of the method: (§2)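 Crop and weed responses were judged three weeks after a uniform surface spray of the water-diluted emulsion at the given g/ha rate. Seeds sat beneath about 1.5 cm of sterilized diluvial soil, and boxes stood in a greenhouse at 25 to 30° C.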

beet [3] = test: Test Example 3: soil treatment, effect on crop; f: beet
Summary of the method: as §2

barnyard grass [4] = test: Test Example 4: weedkilling efficacy by foliar treatment; F: barnyard grass
Summary of the method: (§3)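 Seeds are spot-sown into sterilized diluvial soil and covered with about 1.5 cm of soil. After 14 days' greenhouse growth at 25 to 30° C, plants are sprayed on stems and leaves with diluted emulsion at the stated g/ha rate, then scored at 3 weeks.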

beet [5] = test: Test Example 4: foliar treatment, effect on crop; f: beet
Summary of the method: as §3

Italian ryegrass [6] = test: Test Example 3: weedkilling efficacy through soil treatment; I: Italian ryegrass
Summary of the method: as §2

barnyard grass [7] = test: Test Example 1: weedkilling efficacy, preemergent weed treatment in the submerged state; A: barnyard grass
Summary of the method: (§4)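 Alluvial soil in Wagner pots flooded to 4 cm; barnyard grass, bulrush and oval-leafed pondweed seeds sown, then 2.5-leaf rice seedlings transplanted. Same day, emulsified compound diluted in water to set g/ha dosages and applied to water surface; greenhouse 25–30 °C, effect scored by criteria after 3 weeks.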

soybean [8] = test: Test Example 3: soil treatment, effect on crop; d: soybean
Summary of the method: as §2

green foxtail [9] = test: Test Example 4: weedkilling efficacy by foliar treatment; E: green foxtail
Summary of the method: as §3

rapeseed [10] = test: Test Example 3: soil treatment, effect on crop; g: rapeseed
Summary of the method: as §2

wild oat [11] = test: Test Example 4: weedkilling efficacy by foliar treatment; G: wild oat
Summary of the method: as §3

corn [12] = test: Test Example 3: soil treatment, effect on crop; c: corn
Summary of the method: as §2

transplanted rice = test: Test Example 1: preemergent weed treatment in the submerged state, effect on crop; a: transplanted rice
Summary of the method: as §4

corn [13] = test: Test Example 4: foliar treatment, effect on crop; c: corn
Summary of the method: as §3

soybean [14] = test: Test Example 4: foliar treatment, effect on crop; d: soybean
Summary of the method: as §3

chickweed [15] = test: Test Example 4: weedkilling efficacy by foliar treatment; N: chickweed
Summary of the method: as §3

catchweed [16] = test: Test Example 4: weedkilling efficacy by foliar treatment; O: catchweed
Summary of the method: as §3

common wind-grass [17] = test: Test Example 3: weedkilling efficacy through soil treatment; J: common wind-grass
Summary of the method: as §2

birds-eye speedwell [18] = test: Test Example 3: weedkilling efficacy through soil treatment; p: birds-eye speedwell
Summary of the method: as §2

directly sown rice [19] = test: Test Example 4: foliar treatment, effect on crop; b: directly sown rice
Summary of the method: as §3

directly sown rice [20] = test: Test Example 3: soil treatment, effect on crop; b: directly sown rice
Summary of the method: as §2

crabgrass [21] = test: Test Example 3: weedkilling efficacy through soil treatment; D: crabgrass
Summary of the method: as §2

birds-eye speedwell [22] = test: Test Example 4: weedkilling efficacy by foliar treatment; p: birds-eye speedwell
Summary of the method: as §3

rapeseed [23] = test: Test Example 4: foliar treatment, effect on crop; g: rapeseed
Summary of the method: as §3

common wind-grass [24] = test: Test Example 4: weedkilling efficacy by foliar treatment; J: common wind-grass
Summary of the method: as §3

oval-leafed pondweed [25] = test: Test Example 1: weedkilling efficacy, preemergent weed treatment in the submerged state; C: oval-leafed pondweed
Summary of the method: as §4

catchweed [26] = test: Test Example 3: weedkilling efficacy through soil treatment; O: catchweed
Summary of the method: as §2

Italian ryegrass [27] = test: Test Example 4: weedkilling efficacy by foliar treatment; I: Italian ryegrass
Summary of the method: as §3

barnyard grass [28] = test: Test Example 3: weedkilling efficacy through soil treatment; F: barnyard grass
Summary of the method: as §2

green foxtail [29] = test: Test Example 3: weedkilling efficacy through soil treatment; E: green foxtail
Summary of the method: as §2

black-grass [30] = test: Test Example 3: weedkilling efficacy through soil treatment; H: black-grass
Summary of the method: as §2

bulrush [31] = test: Test Example 1: weedkilling efficacy, preemergent weed treatment in the submerged state; B: bulrush
Summary of the method: as §4

wheat [32] = test: Test Example 4: foliar treatment, effect on crop; e: wheat
Summary of the method: as §3

oval-leafed pondweed [33] = test: Test Example 2: weedkilling efficacy, growth period weed treatment in the submerged state; C: oval-leafed pondweed
Summary of the method: as §1

Indian mallow [34] = test: Test Example 3: weedkilling efficacy through soil treatment; K: Indian mallow
Summary of the method: as §2

fig-leafed goosefoot = test: Test Example 3: weedkilling efficacy through soil treatment; M: fig-leafed goosefoot
Summary of the method: as §2

Indian mallow [35] = test: Test Example 4: weedkilling efficacy by foliar treatment; K: Indian mallow
Summary of the method: as §3

chickweed [36] = test: Test Example 3: weedkilling efficacy through soil treatment; N: chickweed
Summary of the method: as §2

crabgrass [37] = test: Test Example 4: weedkilling efficacy by foliar treatment; D: crabgrass
Summary of the method: as §3

black-grass [38] = test: Test Example 4: weedkilling efficacy by foliar treatment; H: black-grass
Summary of the method: as §3

redroot pigweed [39] = test: Test Example 4: weedkilling efficacy by foliar treatment; L: redroot pigweed
Summary of the method: as §3

bulrush [40] = test: Test Example 2: weedkilling efficacy, growth period weed treatment in the submerged state; B: bulrush
Summary of the method: as §1

wheat [41] = test: Test Example 3: soil treatment, effect on crop; e: wheat
Summary of the method: as §2

redroot pigweed [42] = test: Test Example 3: weedkilling efficacy through soil treatment; L: redroot pigweed
Summary of the method: as §2

SMILES: CC1=C(c2ccccc2)C(=O)N(C(C)(C)C(=O)Nc2cccc(CF)n2)CO1 [B-2-56]
- A (barnyard grass) weedkilling efficacy grade (barnyard grass [1]): 5 (weed kill ratio 90% or more, (practically complete withering))
- G (wild oat) weedkilling efficacy grade (wild oat [2]): 3 (weed kill ratio 40% or more, less than 70%)
- f (beet) effect on crop grade (beet [3]): 2 (weed kill ratio 20% or more, less than 40%)
- F (barnyard grass) weedkilling efficacy grade (barnyard grass [4]): 4 (weed kill ratio 70% or more, less than 90%)
- f (beet) effect on crop grade (beet [5]): 3 (weed kill ratio 40% or more, less than 70%)
- I (Italian ryegrass) weedkilling efficacy grade (Italian ryegrass [6]): 5 (weed kill ratio 90% or more, (practically complete withering))
- A (barnyard grass) weedkilling efficacy grade (barnyard grass [7]): 5 (weed kill ratio 90% or more, (practically complete withering))
- d (soybean) effect on crop grade (soybean [8]): 0 (weed kill ratio 5% or less (practically no effect))
- E (green foxtail) weedkilling efficacy grade (green foxtail [9]): 5 (weed kill ratio 90% or more, (practically complete withering))
- g (rapeseed) effect on crop grade (rapeseed [10]): 1 (weed kill ratio 5% or more, less than 20%)
- G (wild oat) weedkilling efficacy grade (wild oat [11]): 5 (weed kill ratio 90% or more, (practically complete withering))
- c (corn) effect on crop grade (corn [12]): 1 (weed kill ratio 5% or more, less than 20%)
- a (transplanted rice) effect on crop grade (transplanted rice): 1 (weed kill ratio 5% or more, less than 20%)
- c (corn) effect on crop grade (corn [13]): 5 (weed kill ratio 90% or more, (practically complete withering))
- d (soybean) effect on crop grade (soybean [14]): 4 (weed kill ratio 70% or more, less than 90%)
- N (chickweed) weedkilling efficacy grade (chickweed [15]): 4 (weed kill ratio 70% or more, less than 90%)
- O (catchweed) weedkilling efficacy grade (catchweed [16]): 4 (weed kill ratio 70% or more, less than 90%)
- J (common wind-grass) weedkilling efficacy grade (common wind-grass [17]): 5 (weed kill ratio 90% or more, (practically complete withering))
- P (birds-eye speedwell) weedkilling efficacy grade (birds-eye speedwell [18]): 5 (weed kill ratio 90% or more, (practically complete withering))
- b (directly sown rice) effect on crop grade (directly sown rice [19]): 4 (weed kill ratio 70% or more, less than 90%)
- b (directly sown rice) effect on crop grade (directly sown rice [20]): 2 (weed kill ratio 20% or more, less than 40%)
- D (crabgrass) weedkilling efficacy grade (crabgrass [21]): 5 (weed kill ratio 90% or more, (practically complete withering))
- P (birds-eye speedwell) weedkilling efficacy grade (birds-eye speedwell [22]): 4 (weed kill ratio 70% or more, less than 90%)
- g (rapeseed) effect on crop grade (rapeseed [23]): 3 (weed kill ratio 40% or more, less than 70%)
- J (common wind-grass) weedkilling efficacy grade (common wind-grass [24]): 5 (weed kill ratio 90% or more, (practically complete withering))
- C (oval-leafed pondweed) weedkilling efficacy grade (oval-leafed pondweed [25]): 5 (weed kill ratio 90% or more, (practically complete withering))
- O (catchweed) weedkilling efficacy grade (catchweed [26]): 5 (weed kill ratio 90% or more, (practically complete withering))
- I (Italian ryegrass) weedkilling efficacy grade (Italian ryegrass [27]): 5 (weed kill ratio 90% or more, (practically complete withering))
- F (barnyard grass) weedkilling efficacy grade (barnyard grass [28]): 5 (weed kill ratio 90% or more, (practically complete withering))
- E (green foxtail) weedkilling efficacy grade (green foxtail [29]): 5 (weed kill ratio 90% or more, (practically complete withering))
- H (black-grass) weedkilling efficacy grade (black-grass [30]): 5 (weed kill ratio 90% or more, (practically complete withering))
- B (bulrush) weedkilling efficacy grade (bulrush [31]): 5 (weed kill ratio 90% or more, (practically complete withering))
- e (wheat) effect on crop grade (wheat [32]): 3 (weed kill ratio 40% or more, less than 70%)
- C (oval-leafed pondweed) weedkilling efficacy grade (oval-leafed pondweed [33]): 5 (weed kill ratio 90% or more, (practically complete withering))
- K (Indian mallow) weedkilling efficacy grade (Indian mallow [34]): 0 (weed kill ratio 5% or less (practically no effect))
- M (fig-leafed goosefoot) weedkilling efficacy grade (fig-leafed goosefoot): 4 (weed kill ratio 70% or more, less than 90%)
- K (Indian mallow) weedkilling efficacy grade (Indian mallow [35]): 0 (weed kill ratio 5% or less (practically no effect))
- N (chickweed) weedkilling efficacy grade (chickweed [36]): 4 (weed kill ratio 70% or more, less than 90%)
- D (crabgrass) weedkilling efficacy grade (crabgrass [37]): 5 (weed kill ratio 90% or more, (practically complete withering))
- H (black-grass) weedkilling efficacy grade (black-grass [38]): 4 (weed kill ratio 70% or more, less than 90%)
- L (redroot pigweed) weedkilling efficacy grade (redroot pigweed [39]): 3 (weed kill ratio 40% or more, less than 70%)
- B (bulrush) weedkilling efficacy grade (bulrush [40]): 5 (weed kill ratio 90% or more, (practically complete withering))
- e (wheat) effect on crop grade (wheat [41]): 1 (weed kill ratio 5% or more, less than 20%)
- L (redroot pigweed) weedkilling efficacy grade (redroot pigweed [42]): 2 (weed kill ratio 20% or more, less than 40%)
